Experimental data: patent US9040545B2, “Heterocyclyl pyrazolopyrimidine analogues as selective JAK inhibitors” (Cellzome Limited, priority 2010, dated 2015)

Experiments:
JAK2 = molecular target: T1, JAK2 (Homo sapiens, UniProt O60674); test: Kinobeads assay, JAK2; assay type: binding; details: mixed Molt4/Ramos lysate, read-out: Inhibition values (IC50) JAK2
T1 construct: endogenous in cells; host or cells: mixed Molt4/Ramos lysate (1:2)
Outline: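 Competition binding in mixed Molt4/Ramos cell lysate (1:2, 10 mg/mL protein) with Kinobeads carrying immobilized aminopyrido-pyrimidine ligand, 3 h in cold room; 9-step 1:3 compound dilution series from 5 mM DMSO stock. Bead-bound JAK2/JAK3 eluted and quantified by antibody dot blot with infrared detection; IC50 from dose-response curves.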

Aurora B = molecular target: T2, Aurora B (Homo sapiens, UniProt Q96GD4); test: Kinobeads assay, Aurora B; assay type: binding; details: for IC50: lysate of pervanadate-treated Jurkat cells, read-out: Inhibition values (IC50) Aur B
T2 construct: cell lysates from Jurkat cells (ATCC TIB-152) used; endogenous in cells; host or cells: Jurkat cells (ATCC TIB-152), treated with pervanadate
T2 sequence (Q96GD4 whole entry): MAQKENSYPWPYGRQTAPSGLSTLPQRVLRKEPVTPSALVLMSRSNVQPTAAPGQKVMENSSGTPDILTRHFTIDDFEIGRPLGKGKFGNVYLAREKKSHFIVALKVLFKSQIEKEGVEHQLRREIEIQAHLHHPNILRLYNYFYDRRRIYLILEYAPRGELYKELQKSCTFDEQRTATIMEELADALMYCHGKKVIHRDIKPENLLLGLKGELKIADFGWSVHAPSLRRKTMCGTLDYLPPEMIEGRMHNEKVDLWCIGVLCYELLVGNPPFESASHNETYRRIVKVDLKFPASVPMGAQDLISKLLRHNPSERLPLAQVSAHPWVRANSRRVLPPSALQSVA

T1 sequence (O60674 whole entry): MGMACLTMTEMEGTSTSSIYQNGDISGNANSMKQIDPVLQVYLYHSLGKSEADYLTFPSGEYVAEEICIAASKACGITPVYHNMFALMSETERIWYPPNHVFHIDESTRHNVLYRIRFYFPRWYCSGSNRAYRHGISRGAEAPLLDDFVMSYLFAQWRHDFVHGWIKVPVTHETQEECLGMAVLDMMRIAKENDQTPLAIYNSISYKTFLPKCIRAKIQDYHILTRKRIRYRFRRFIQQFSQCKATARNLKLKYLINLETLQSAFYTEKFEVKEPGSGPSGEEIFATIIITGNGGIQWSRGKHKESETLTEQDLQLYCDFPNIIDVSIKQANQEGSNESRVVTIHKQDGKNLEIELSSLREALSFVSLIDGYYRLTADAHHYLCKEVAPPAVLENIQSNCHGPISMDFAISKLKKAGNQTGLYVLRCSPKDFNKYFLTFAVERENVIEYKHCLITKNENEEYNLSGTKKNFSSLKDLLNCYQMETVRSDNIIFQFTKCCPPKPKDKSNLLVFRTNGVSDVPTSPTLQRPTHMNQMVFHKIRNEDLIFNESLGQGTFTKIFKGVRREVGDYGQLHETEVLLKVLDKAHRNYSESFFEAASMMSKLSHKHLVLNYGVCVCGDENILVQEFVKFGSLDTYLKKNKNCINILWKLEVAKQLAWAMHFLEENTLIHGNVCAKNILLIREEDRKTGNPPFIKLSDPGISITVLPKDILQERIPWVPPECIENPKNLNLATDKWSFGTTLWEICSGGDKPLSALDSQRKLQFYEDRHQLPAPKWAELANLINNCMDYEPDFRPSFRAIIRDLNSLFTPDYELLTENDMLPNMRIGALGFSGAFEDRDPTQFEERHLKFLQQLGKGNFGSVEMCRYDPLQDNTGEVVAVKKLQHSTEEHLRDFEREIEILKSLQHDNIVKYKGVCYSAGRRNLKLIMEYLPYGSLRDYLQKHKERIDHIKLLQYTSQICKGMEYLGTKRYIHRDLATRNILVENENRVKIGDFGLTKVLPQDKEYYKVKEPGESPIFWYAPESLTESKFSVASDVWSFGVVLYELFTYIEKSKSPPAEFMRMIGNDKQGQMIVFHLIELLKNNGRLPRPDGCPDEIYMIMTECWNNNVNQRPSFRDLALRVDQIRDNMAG

| SMILES | IC50 (JAK2) [µM] | JAK3/AurB Fold Selectivity (Aurora B) | IC50 (Aurora B) [µM] |
| --- | --- | --- | --- |
| O=C1CCCN1CCCn1cc(Nc2ncc3cnn(Cc4cccc(N5CCOCC5)c4)c3n2)cn1 [Example 30, 1-(3-(4-((1-(3-Morpholinobenzyl)-1H-pyrazolo[3,4-d]pyrimidin-6-yl)amino)-1H-pyrazol-1-yl)propyl)pyrrolidin-2-one] | ≥ 10 | >50 Fold | 1 to 10 |
| Cn1cc(Nc2ncc3cnn(Cc4cccc(N5CCC6(COC6)C5)c4)c3n2)cn1 [Example 104, 1-(3-(2-oxa-6-azaspiro[3.4]octan-6-yl)benzyl)-N-(1-methyl-1H-pyrazol-4-yl)-1H-pyrazolo[3,4-d]pyrimidin-6-amine] | ≥ 10 | 10-50 Fold | 1 to 10 |
| NCCCn1cc(Nc2ncc3cnn(Cc4cccc(N5CCOCC5)c4)c3n2)cn1 [Example 34, N-(1-(3-Aminopropyl)-1H-pyrazol-4-yl)-1-(3-morpholinobenzyl)-1H-pyrazolo[3,4-d]pyrimidin-6-amine] | ≥ 10 | >50 Fold | 1 to 10 |
| CN1CCN(c2cccc(Cn3ncc4cnc(Nc5cnn(C)c5)nc43)c2)CC1 [Example 10, N-(1-Methyl-1H-pyrazol-4-yl)-1-(3-(4-methylpiperazin-1-yl)benzyl)-1H-pyrazolo[3,4-d]pyrimidin-6-amine] | ≥ 10 | 10-50 Fold | 0.1 to 1 |
| CNC(=O)Cn1cc(Nc2ncc3cnn(Cc4cccc(N5CCOCC5)c4)c3n2)cn1 [Example 12, N-Methyl-2-(4-((1-(3-morpholinobenzyl)-1H-pyrazolo[3,4-d]pyrimidin-6-yl)amino)-1H-pyrazol-1-yl)acetamide] | ≥ 10 | 10-50 Fold | 0.1 to 1 |
| Cn1cc(Nc2ncc3cnn(Cc4cc(N5CCOCC5)cc(F)c4F)c3n2)cn1 [Example 37, 1-(2,3-Difluoro-5-morpholinobenzyl)-N-(1-methyl-1H-pyrazol-4-yl)-1H-pyrazolo[3,4-d]pyrimidin-6-amine] | ≥ 10 | >50 Fold | 1 to 10 |

Continued, values first:

| IC50 (JAK2) [µM] | JAK3/AurB Fold Selectivity (Aurora B) | IC50 (Aurora B) [µM] | SMILES |
| --- | --- | --- | --- |
| 1 to 10 | >50 Fold | 1 to 10 | Cn1cc(Nc2ncc3cnn(Cc4cc(F)cc(N5CC6(COC6)C5)c4)c3n2)cn1 [Example 90, 1-(3-fluoro-5-(2-oxa-6-azaspiro[3.3]heptan-6-yl)benzyl)-N-(1-methyl-1H-pyrazol-4-yl)-1H-pyrazolo[3,4-d]pyrimidin-6-amine] |
| 1 to 10 | >50 Fold | 1 to 10 | Cn1cc(Nc2ncc3cnn(Cc4cccc(N5CC6(COC6)C5)c4F)c3n2)cn1 [Example 91, 1-(2-fluoro-3-(2-oxa-6-azaspiro[3.3]heptan-6-yl)benzyl)-N-(1-methyl-1H-pyrazol-4-yl)-1H-pyrazolo[3,4-d]pyrimidin-6-amine] |
| 1 to 10 | 10-50 Fold | 0.1 to 1 | Cn1cc(Nc2ncc3cnn(Cc4cccc(N5CCOCC5=O)c4)c3n2)cn1 [Example 27, 4-(3-((6-((1-Methyl-1H-pyrazol-4-yl)amino)-1H-pyrazolo[3,4-d]pyrimidin-1-yl)methyl)phenyl)morpholin-3-one] |
| 1 to 10 | >50 Fold | 0.1 to 1 | CN(C)CCCn1cc(Nc2ncc3cnn(Cc4cccc(N5CCOCC5)c4)c3n2)cn1 [Example 4, N-(1-(3-(Dimethylamino)propyl)-1H-pyrazol-4-yl)-1-(3-morpholinobenzyl)-1H-pyrazolo[3,4-d]pyrimidin-6-amine] |
